The subject of test [1] is Thromboxane A2 Synthetase. Nature of the test: Determination of thromboxane A2 synthetase inhibitory activity (lysed horse platelets, [1-14C]-arachidonic acid conversion, TLC/scintillation counting). Format: biochemical. The conditions noted are these: concentration of active compound required to reduce the enzyme activity by 50%; horse platelet lysate, 3 min at 37°C. On the procedure: The active compound was dissolved in a suitable solvent at a concentration of 5 mg/ml, and 20 µl added to 0.8 ml of 100 mM Tris buffer (pH 7.5). The platelets from 5 ml of horse PRP were centrifuged and resuspended in 100µl of Tris buffer. After lysis by sonication or freeze thawing, the platelet suspension was added to the solution of active compound and equilibrated for 5 min at room temperature. Then 300 ng (50 nCi) of [1-^14C]-arachidonic acid, dissolved in 100 µl Tris buffer, was added and the mixture incubated for 3 min at 37°C. The reaction was stopped with 50 ul 2N HCl and the products extracted with 1.5 volumes ethyl acetate by whirling for 30 seconds. 1 ml saturated NaCl was added to the aqueous phase to prevent emulsion formation. […] The plate was developed in chloroform, methanol, acetic acid, water (90:8:1:0.8), dried and then visualised by autoradiography for 2-3 days. […] The concentration of active compound required to reduce the enzyme activity by 50% (ED50) was established.

The test system of test [2] is Thromboxane A2 Synthetase. Nature of the test: Duration of action of thromboxane A2 synthetase inhibitors in vivo (oral dosing, thromboxane A2 in serum of clotted blood by RIA). Also noted: species or system N.Z. male rabbits. Particulars: rabbit, period over which thromboxane A2 concentration is depressed relative to controls. The protocol: N.Z. male rabbits weighing 2.5 kg are anaesthetized with sodium pentobarbitone and chloralose and one carotoid artery is cannulated. Blood samples (lml) are taken for incubation; two as controls and one, adding 10 µg indomethacin, as a blank. After each sample is taken the cannula is flushed with saline. The active compound is then administered orally and further samples at half hour intervals for five to eight hours. The blood samples for the controls and the active compound are incubated in glass tubes for 45 minutes at 37°C to clot the blood. Indomethacin is added and the tubes centrifuged to separate the serum which is pipetted off for RIA analysis to determine the concentration of thromboxane A2. The period of time over which the inhibitor depressed the concentration of thromboxane A2 relative to the controls is then determined.

Converted amounts (≈) assume the structure as drawn. Structures can show the parent of a compound that is named as a salt.

This is an account of results in patent EP0106060A2, “Imidazole derivatives and salts thereof, their synthesis, and pharmaceutical formulations” (THE WELLCOME FOUNDATION LIMITED, priority 1982, dated 1984).

In test [1], `Cl.O=C(O)c1ccc(Cn2ccnc2)c(Cl)c1` [Example 1, 1-(4-Carboxy-2-chlorobenzyl)imidazole hydrochloride] gave an ED50 of 6.6 µg/mL. Further, the duration of action entry in test [2] (dose of 160 mg/kg) is “at least 5 hours”. Take `CCOC(=O)/C=C/c1ccc(Cn2ccnc2)c(Cl)c1` [Example 2, Ethyl (E)-3-[3-chloro-4-(imidazol-1-ylmethyl)phenyl]prop-2-enoate]: the ED50 in test [1] turned out to be 0.5 µg/mL (≈ 1.72 µM). Regarding `Cl.O=C(O)/C=C/c1ccc(Cn2ccnc2)c(Cl)c1` [Example 3, (E)-3-[3-Chloro-4-(imidazol-1-ylmethyl)phenyl] prop-2-enoic acid hydro chloride], the ED50 in test [1] came to 0.05 µg/mL. Also, the duration of action entry in test [2] (dose of 2 mg/kg) is listed as “at least 7 hours”.

`O=C(O)CCc1ccc(Cn2ccnc2)c(Cl)c1` [Example 4, 3-[3-Chloro-4-(imidazol-1-ylmethyl)phenyl]proeanoic acid hydrochloride] displayed an ED50 in test [1] of 0.08 µg/mL. The same measure, in the same setting: next, `Cl.O.O=C(O)C=Cc1ccc(Cn2ccnc2)c(Br)c1` [Example 6, 3-[3-Bromo-4-(imidazol-1-ylmethyl)phenyl]prop-2-enoic acid hydrochloride hydrate]: 0.015 µg/mL; `O=C(O)c1ccc(C=CCn2ccnc2)cc1Cl` [Example 10, 1-[3-(4-Carboxy-3-chlorophenyl)prop-2-enyl]imidazole hydrochloride hemihydrate]: 0.35 µg/mL.
